In patent US5332574A, “Compounds produced by a strain of Streptomyces exfoliatus” (Bristol-Myers Squibb Company, priority 1993, dated 1994):
In brackets after ≈: the same amount, converted by molar mass. Where two headings read alike, the source gives them in different places.

Tests used:
Experiment in all cases: MIC, serial two-fold agar dilution method
Type in all cases: cell-based
[1] = tested on: Bacillus subtilis ATCC 6633
Procedure: (§1) The minimum inhibitory concentrations (MICs) of BU-4726G-A and BU-4726G-B were determined against various bacteria and fungi by the serial two-fold agar dilution method. Nutrient agar medium (Eiken) was used for bacteria and Sabouraud dextrose agar medium (Difco) for fungi.
(§2) Medium: Nutrient agar (Eiken, pH 7.0)
(§3) Inoculum size: 10^5 cells/ml
(§4) Inoculated conditions: 32° C., 20 hours

[2] = tested on: Escherichia coli Juhl
Procedure: as §1, §2, §3, §4

[3] = tested on: Escherichia coli K12; settings: Nutrient agar pH 7.0, 10^5 cells/ml, 32° C., 20 hours
Procedure: as §1, §2, §3, §4

[4] = tested on: Klebsiella pneumoniae PCI 602
Procedure: as §1, §2, §3, §4

[5] = tested on: Micrococcus luteus ATCC 9341
Procedure: as §1, §2, §3, §4

[6] = tested on: Pseudomonas aeruginosa A9843 A; settings: A9843A
Procedure: as §1, §2, §3, §4

[7] = tested on: Salmonella typhi 901; settings: Salmonella enterica, 20 h, pH 7
Procedure: as §1, §2, §3, §4

[8] = tested on: Staphylococcus aureus 209P
Procedure: as §1, §2, §3, §4

[9] = tested on: Staphylococcus aureus A15036(MRSA)
Procedure: as §1, §2, §3, §4

[10] = tested on: Staphylococcus aureus Smith
Procedure: as §1, §2, §3, §4

[11] = tested on: Streptococcus faecalis A2808; settings: Enterococcus faecalis, A2808, 20 h, pH 7
Procedure: as §1, §2, §3, §4

[12] = tested on: Staphylococcus epidermidis 11-1168; settings: 111168, Nutrient agar pH 7.0, 10^5 cells/ml, 32° C., 20 hours
Procedure: as §1, §2, §3, §4

## N[C@@H](C(=O)N[C@@H]1C(=O)N2C(C(=O)O)=C(Cl)CS[C@H]12)c1ccccc1 [Cefaclor]
[1]; Bacillus subtilis, ATCC6633, 20 h, pH 7
  MIC: < 0.05 µg/mL
[2]; Escherichia coli, 20 h, pH 7
  MIC: 0.4 µg/mL (≈ 1.09 µM)
[3]
  MIC: 0.4 µg/mL (≈ 1.09 µM)
[4]; Klebsiella pneumoniae, PCI602, 20 h, pH 7
  MIC: 0.2 µg/mL (≈ 0.544 µM)
[5]; Micrococcus luteus, ATCC9341, 20 h, pH 7
  MIC: < 0.05 µg/mL
[6]; Pseudomonas aeruginosa, 20 h, pH 7
  MIC: > 100 µg/mL
[7]
  MIC: 0.2 µg/mL (≈ 0.544 µM)
[8]; Staphylococcus aureus, 209P, 20 h, pH 7
  MIC: 0.8 µg/mL (≈ 2.18 µM)
[9]; Staphylococcus aureus, MRSA, 20 h, pH 7
  MIC: 25 µg/mL (≈ 68 µM)
[10]; Staphylococcus aureus, 20 h, pH 7
  MIC: 0.4 µg/mL (≈ 1.09 µM)
[11]
  MIC: 25 µg/mL (≈ 68 µM)

## NCC[C@H](O)C(=O)N[C@@H]1C[C@H](N)[C@@H](O[C@H]2O[C@H](CN)[C@@H](O)[C@H](O)[C@H]2O)[C@H](O)[C@H]1O[C@H]1O[C@H](CO)[C@@H](O)[C@H](N)[C@H]1O [Amikacin]
[1]; ATCC6633, Bacillus subtilis ATCC 6633, Nutrient agar pH 7.0, 10^5 cells/ml, 32° C., 20 hours, read-out: MIC
  MIC: 0.4 µg/mL (≈ 0.683 µM)
[2]; Escherichia coli Juhl, Nutrient agar pH 7.0, 10^5 cells/ml, 32° C., 20 hours, read-out: MIC
  MIC: 3.1 µg/mL (≈ 5.29 µM)
[3]
  MIC: 0.8 µg/mL (≈ 1.37 µM)
[4]; PCI602, Klebsiella pneumoniae PCI 602, Nutrient agar pH 7.0, 10^5 cells/ml, 32° C., 20 hours, read-out: MIC
  MIC: 0.4 µg/mL (≈ 0.683 µM)
[5]; ATCC9341, Micrococcus luteus ATCC 9341, Nutrient agar pH 7.0, 10^5 cells/ml, 32° C., 20 hours, read-out: MIC
  MIC: 3.1 µg/mL (≈ 5.29 µM)
[6]; Pseudomonas aeruginosa A9843 A, Nutrient agar pH 7.0, 10^5 cells/ml, 32° C., 20 hours, read-out: MIC
  MIC: 3.1 µg/mL (≈ 5.29 µM)
[7]
  MIC: 3.1 µg/mL (≈ 5.29 µM)
[8]; Staphylococcus aureus 209P, Nutrient agar pH 7.0, 10^5 cells/ml, 32° C., 20 hours, read-out: MIC
  MIC: 0.4 µg/mL (≈ 0.683 µM)
[9]; Staphylococcus aureus A15036(MRSA), Nutrient agar pH 7.0, 10^5 cells/ml, 32° C., 20 hours, read-out: MIC
  MIC: 3.1 µg/mL (≈ 5.29 µM)
[10]; Staphylococcus aureus Smith, Nutrient agar pH 7.0, 10^5 cells/ml, 32° C., 20 hours, read-out: MIC
  MIC: 1.6 µg/mL (≈ 2.73 µM)
[12]
  MIC: 50 µg/mL (≈ 85.4 µM)
[11]
  MIC: 50 µg/mL (≈ 85.4 µM)
